From the NIST ThermoML archive (doi:10.1016/j.jct.2007.08.005)

Test: xn = mol fraction of the nth substance listed
Conditions: 308.15 K, 101 kPa, Liquid; for excess molar volume: Direct dilatometry; for speed of sound: Sing-around technique in a fixed-path interferometer

O=C1CCCN1 [2-pyrrolidinone] + OCCO
Conditions	excess molar volume [m3/mol]	speed of sound [m/s]	viscosity [mPa·s]
x2 = 0.0118	4e-09	–	–
x2 = 0.0271	1.1e-08	–	–
x2 = 0.0351	–	1600.6	8.955
x2 = 0.0551	2.1e-08	–	–
x2 = 0.0613	–	1601.1	9.037
x2 = 0.0711	2.4e-08	–	–
x2 = 0.0816	–	1601.4	9.118
x2 = 0.0891	3.3e-08	–	–
x2 = 0.1123	3.6e-08	–	–
x2 = 0.1155	–	1601.9	9.255
x2 = 0.1356	4.4e-08	–	–
x2 = 0.1467	5e-08	–	–
x2 = 0.1641	–	1602.4	9.302
x2 = 0.1671	5.6e-08	–	–
x2 = 0.1927	6e-08	–	–
x2 = 0.2134	–	1602.9	9.358
x2 = 0.2287	6.9e-08	–	–
x2 = 0.2682	8.3e-08	–	–
x2 = 0.3038	9.4e-08	–	–
x2 = 0.3111	–	1604.5	9.487
x2 = 0.3336	1.01e-07	–	–
x2 = 0.3866	–	1605.8	9.654
x2 = 0.4018	1.12e-07	–	–
x2 = 0.4305	1.16e-07	–	–
x2 = 0.4785	1.21e-07	–	–
x2 = 0.4965	1.22e-07	–	–
x2 = 0.5068	–	1607.7	9.833
x2 = 0.5172	1.22e-07	–	–
x2 = 0.543	1.23e-07	–	–
x2 = 0.5614	1.22e-07	–	–
x2 = 0.6039	–	1610	9.963
x2 = 0.607	1.2e-07	–	–
x2 = 0.623	1.19e-07	–	–
x2 = 0.6414	1.17e-07	–	–
x2 = 0.6694	1.15e-07	–	–
x2 = 0.6896	1.11e-07	–	–
x2 = 0.7046	–	1613.5	10.04
x2 = 0.7154	1.08e-07	–	–
x2 = 0.7437	1.02e-07	–	–
x2 = 0.7579	1e-07	–	–
x2 = 0.7775	9.6e-08	–	–
x2 = 0.8015	–	1617.8	10.29
x2 = 0.8278	8.7e-08	–	–
x2 = 0.8424	8.4e-08	–	–
x2 = 0.8495	–	1620.3	10.5
x2 = 0.8713	7.5e-08	–	–
x2 = 0.8846	7e-08	–	–
x2 = 0.8963	6.6e-08	–	–
x2 = 0.8974	–	1624.1	10.75
x2 = 0.9107	5.9e-08	–	–
x2 = 0.9233	–	1626	10.83
x2 = 0.9249	5.2e-08	–	–
x2 = 0.9349	4.4e-08	–	–
x2 = 0.9458	–	1627.7	11.05
x2 = 0.9544	3.6e-08	–	–
x2 = 0.961	2.7e-08	–	–
x2 = 0.9731	–	1631	11.14
x2 = 0.9747	1.8e-08	–	–
x2 = 0.9869	1.2e-08	–	–
x2 = 0.9976	4e-09	–	–

OCCCO [propan-1,3-diol] + O=C1CCCN1
Conditions	excess molar volume [m3/mol]	speed of sound [m/s]	viscosity [mPa·s]
x1 = 0.0149	7e-09	–	–
x1 = 0.0255	1e-08	–	–
x1 = 0.0365	–	1600.9	9.37
x1 = 0.0582	1.6e-08	–	–
x1 = 0.059	–	1601.4	9.712
x1 = 0.0669	1.8e-08	–	–
x1 = 0.0794	–	1602.1	9.969
x1 = 0.0811	1.9e-08	–	–
x1 = 0.0944	1.9e-08	–	–
x1 = 0.1005	–	1602.7	10.29
x1 = 0.1161	2.2e-08	–	–
x1 = 0.133	2.3e-08	–	–
x1 = 0.1451	–	1603.5	–
x1 = 0.1452	–	–	10.9
x1 = 0.1507	2.5e-08	–	–
x1 = 0.1752	2.6e-08	–	–
x1 = 0.1944	–	1604.5	11.58
x1 = 0.2346	2.7e-08	–	–
x1 = 0.2749	2.8e-08	–	–
x1 = 0.3004	–	1606.2	–
x1 = 0.3005	–	–	13.29
x1 = 0.3232	2.9e-08	–	–
x1 = 0.399	2.8e-08	–	–
x1 = 0.3994	–	1607.4	15.04
x1 = 0.4472	2.5e-08	–	–
x1 = 0.4784	2.5e-08	–	–
x1 = 0.4826	2.4e-08	–	–
x1 = 0.4902	–	1608.2	16.76
x1 = 0.4941	2.4e-08	–	–
x1 = 0.518	2.2e-08	–	–
x1 = 0.537	2.1e-08	–	–
x1 = 0.5552	2.1e-08	–	–
x1 = 0.5751	1.8e-08	–	–
x1 = 0.5828	–	1608.7	18.38
x1 = 0.6011	1.5e-08	–	–
x1 = 0.6281	1.3e-08	–	–
x1 = 0.6505	1e-08	–	–
x1 = 0.6707	9e-09	–	–
x1 = 0.6824	8e-09	–	–
x1 = 0.6833	–	1608.8	20.23
x1 = 0.7028	4e-09	–	–
x1 = 0.7232	1e-09	–	–
x1 = 0.746	-2e-09	–	–
x1 = 0.7719	-4e-09	–	–
x1 = 0.7889	–	1608.3	22.45
x1 = 0.791	-6e-09	–	–
x1 = 0.8126	-8e-09	–	–
x1 = 0.8237	-1e-08	–	–
x1 = 0.8265	–	1607.7	23.24
x1 = 0.8409	-1.3e-08	–	–
x1 = 0.853	-1.6e-08	–	–
x1 = 0.8712	-1.9e-08	–	–
x1 = 0.8823	-2.1e-08	–	–
x1 = 0.8909	–	1606.7	24.43
x1 = 0.8935	-2.2e-08	–	–
x1 = 0.9116	-2.4e-08	–	–
x1 = 0.9186	–	1606.4	24.98
x1 = 0.9269	-2.4e-08	–	–
x1 = 0.9355	-2.3e-08	–	–
x1 = 0.9422	–	1605.8	25.52
x1 = 0.9476	-2.2e-08	–	–
x1 = 0.9599	-2e-08	–	–
x1 = 0.9712	–	1605	26.02
x1 = 0.9803	-1.4e-08	–	–
x1 = 0.9887	-1.2e-08	–	–
x1 = 0.9978	-8e-09	–	–
